According to PubChem BioAssay AID1902 (Broad Institute, 2009):
pEC50: −log10 of the molar value. Active and inactive are the calls of the source.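 Rule for the calls: active = EC50 no more than a set limit of log units above the highest dose; inactive = the rest.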

The compounds below were run against S. pyogenes SKKanGAS, kanamycin survival, BacTiterGlo, 6 h (assay: S. pyogenes SKKanGAS kanamycin growth inhibitors – SKKanGAS strain, luminescence, dose confirmation, streptokinase promoter inhibitor project, dose response (AID 1902);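 note: lower survival reflects blocked streptokinase promoter driving kanamycin resistance gene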).

| Compound | EC50 | pEC50 |
| --- | --- | --- |
| COc1cccc(N2C(=O)C3NN=C(C(=O)CN4C(=O)c5ccccc5C4=O)C3C2=O)c1 (stereo not drawn) | > 15 µM (inactive) |  |
| COc1ccccc1C(=O)Nc1nnc(SCC(=O)NCC2CCCO2)s1 (stereo not drawn) | > 15 µM (inactive) |  |
| Cc1cccc(/C=C/C(=O)c2cc(Br)ccc(=O)c2O)c1 |  | 6.09 |
| CC1(C)Cc2nc3sc4c(OCc5ccccc5)ncnc4c3cc2CO1 |  | 5.38 |
| O=C(O)CSc1nnc(Cn2c(=O)sc3ccccc32)n1-c1cccc(Cl)c1 | > 15 µM (inactive) |  |
| C/C(=N/NC(=O)c1cc2ccccc2cc1O)C1C(=O)c2ccccc2C1=O |  | 5.80 |
| Cc1ccc(C(NC(=O)NC(C)c2ccccc2)C(Cl)(Cl)Cl)cc1F (stereo not drawn) |  | 5.19 |
| CC(Oc1ccc(Cl)cc1Cl)C(=O)Nc1ccc2oc(-c3ccncc3)nc2c1 (stereo not drawn) |  | 5.21 |
| CC(Oc1cccc(Cl)c1)C(=O)Nc1ccccc1N1CCCCC1 (stereo not drawn) |  | 5.52 |
| O=C1CC(N(CCc2ccccc2)C(=S)Nc2ccccc2)C(=O)N1c1ccc(Br)cc1 (stereo not drawn) |  | 5.51 |
| FC(F)(F)c1cccc(NC(=S)NNC(=S)Nc2cccc(C(F)(F)F)c2)c1 |  | 6.09 |
| Cc1cc(C)cc(NC(=S)NCCSc2ccc(Cl)cc2)c1 |  | 4.87 |
| CC(C)(C)N/N=C1\CC(c2ccccc2)Oc2ccccc21 (stereo not drawn) |  | 5.52 |
| Cc1cccc(NC(=O)c2ccc(S(=O)(=O)N(C)CC3CCCO3)cc2)c1C (stereo not drawn) | > 15 µM (inactive) |  |
| COCc1cc(Sc2c(Cl)cccc2Cl)nc(-c2ccccc2)n1 |  | 4.98 |
| O=C(N/N=C\c1c(O)ccc2ccccc12)c1cncc(Br)c1 |  | 5.88 |
| CCn1c(=O)n(CC)c2cc(N3CCCC3)c(NC(=O)c3cc(Br)ccc3OC)cc21 |  | 5.37 |
| O=C(NNC(=S)NC(=O)c1cccnc1)c1ccc(Cl)cc1 |  | 5.58 |
| Cc1oc(-c2ccc(F)cc2)nc1CN(Cc1ccccn1)CC1CCCO1 (stereo not drawn) |  | 5.70 |
| CCS(=O)(=O)c1nc(S(=O)(=O)c2ccc(C)cc2)c(NCCN2CCOCC2)s1 | > 15 µM (inactive) |  |
| Cc1ccc(-c2cc(C(=O)Nc3ccc(S(=O)(=O)Nc4cc(C)on4)cc3)c3ccccc3n2)c(C)c1 |  | 5.25 |
| COc1cc([N+](=O)[O-])cc(/C=N/NC(=O)c2ccc(C)nc2)c1O |  | 5.58 |
| C/C(=N\Nc1ccc(Cl)c(Cl)c1)c1ccc(-n2ccnc2)cc1 |  | 5.73 |
| Cc1coc2c1C(=O)C(=O)c1c-2ccc2c(C)cccc12 |  | 5.56 |
| Oc1nc(Nc2ccc(Cl)cc2Cl)sc1/C=C1\C=Nc2ccccc21 |  | 5.76 |
| Cc1ccc(NNC(=O)C2CCC2)cc1C | > 15 µM (inactive) |  |
| Cc1ccc(S(=O)(=O)Nc2cccc3cccnc23)c([N+](=O)[O-])c1 |  | 6.20 |

| Compound | EC50 | pEC50 |
| --- | --- | --- |
| Cc1cc(C)c(OCC(=O)Nc2ccccc2N2CCCCC2)c(C)c1 |  | 5.36 |
| Cc1ccc(-c2nn(CCC(=O)O)cc2/C=C\C(=O)c2ccc(Br)cc2)cc1 |  | 5.18 |
| CN(CC1CCCO1)S(=O)(=O)c1ccc(C(=O)Nc2nnc(-c3ccccc3)o2)cc1 (stereo not drawn) |  | 5.58 |
| CC(=O)c1sc(N/N=C\c2c(O)ccc3ccccc23)nc1C |  | 5.39 |
| O=S(=O)(c1ccc(F)cc1)c1nc(-c2ccccc2)oc1N1CCOCC1 | > 15 µM (inactive) |  |
| COc1ccc2cc3c(N)nn(C(=O)C4CCC(C(C)(C)C)CC4)c3nc2c1 (stereo not drawn) |  | 5.71 |
| Cc1ccc(Nc2nc3ccccc3[nH]2)nc1 |  | 5.89 |
| CC(C)(C)c1ccc(OCC(=O)NNC(=S)NC(=O)c2ccco2)c(Br)c1 |  | > 7.22 |
| O=C1c2ccccc2CC1(Cc1ccccc1)Cc1ccccc1 |  | 5.36 |
| COCC1CCCCN1C(=O)c1ccc2oc(CCCc3ccccc3)nc2c1 (stereo not drawn) | > 15 µM (inactive) |  |
| O=C(Nc1ncc(Cc2cccc(Cl)c2)s1)c1cccs1 |  | 5.41 |
| Cc1ccc2nc(N3C(=O)CNC3=S)sc2c1 |  | 5.36 |
| Cc1ncc(CO)c(/C=N/NC(=O)c2cc(Br)ccc2O)c1O |  | 5.82 |
| CCCCC(=O)O[C@H]1CC[C@H]2[C@@H]3CCc4cc(O)ccc4[C@H]3CC[C@]12C |  | 5.42 |
| Cc1ccc2nc(N/C(=N/S(=O)(=O)c3ccc(F)cc3)c3ccccc3)sc2c1 |  | 5.21 |
| O=C(c1cccs1)N1CCC(c2nc3c(nnn3Cc3ccccc3Cl)c(=O)[nH]2)CC1 |  | 5.15 |
| Cc1conc1NC(c1cccs1)c1ccc2cccnc2c1O (stereo not drawn) |  | 5.91 |
| O=C(Nc1cccc(NC(=O)c2ccc([N+](=O)[O-])o2)c1)c1ccco1 |  | 5.18 |
| CCCC(=O)Nc1ccc2c(c1)nc(CCNC(=O)c1ccccc1)n2C | > 15 µM (inactive) |  |
| O=C1c2cccc3cccc(c23)C(=O)N1CC1CCN(CC(O)COc2ccc3ccccc3c2)CC1 (stereo not drawn) |  | 5.17 |
| COc1cccc(C2CC(c3cccs3)=NN2C(=O)CSc2nc3c(cnn3-c3ccc(F)cc3)c(=O)[nH]2)c1OC (stereo not drawn) |  | 5.69 |
| OC(COc1cccc2ccccc12)CN1CCN(c2ccc(Cl)cc2)CC1 (stereo not drawn) |  | 4.81 |
| CCCOC(=O)c1ccc(Oc2cn[nH]c2-c2ccc(OCC)cc2O)cc1 |  | 5.86 |
| Cc1ccc(OCC(=O)NNC(=S)NC(=O)c2ccc(Br)o2)c(C)c1 |  | > 7.22 |
| Cn1nc(-c2ccccc2)c(CSc2cccc(Cl)c2)c1Cl |  | 5.97 |
| CC1CCN(c2nc3ccccc3nc2C(C#N)C(=O)NC2CCCCC2)CC1 (stereo not drawn) |  | 5.72 |
